Experimental data taken from US4613355A, “Antibiotic having herbicidal activity” (Satoshi Omura, priority 1983, dated 1986).
Where a name gives a salt, the structure may show the parent alone.

Tests used:
Format in all cases: in vivo
Digitaria adscendens [1] = assay: Foliage treatment of seedlings in pots (Example 7); details: 10 days after foliage treatment, 1000 liter per hectare
Protocol: Upland soil was put in a pot of 10 cm diameter and the seeds of Digitaria adscendens were sown in the soil at a depth of 1 cm from the surface. When the height of the seedlings was about 10 cm, aqueous solutions of the test compounds as shown in the following Table were uniformly sprayed on the plants at a rate of 1.2 ml per plant, equivalent to 1000 liter per hectare. 10 days after the foliage treatment, damage to plants was visually assessed on a scale of from 0 to 10, where 0 indicates no effect and 10 indicates complete kill.

Cayratia japonica = assay: Foliage treatment (Example 8); design: key: 0 indicates no effect; 5 indicates complete kill; details: Plant No. 13 Cayratia japonica
Protocol: (§1) Aqueous solutions of Phosalacine (Na salt) at different concentrations were applied at a rate of 1500 liters per hectare to naturally occurring plants or plants which were cultured on plates as shown in the following Table at certain stages of growth. […] One month after the foliage treatment, the inhibition of regrowth of the plants was visually investigated.

Daucus carota = assay: Foliage treatment (Example 8); design: key: 0 indicates no effect; 5 indicates complete kill; details: Plant No. 29 Daucus carota
Protocol: as §1

Digitaria adscendens [2] = assay: Foliage treatment (Example 8); design: key: 0 indicates no effect; 5 indicates complete kill; details: Plant No. 10 Digitaria adscendens
Protocol: as §1

Helianthus tuberosus = assay: Foliage treatment (Example 8); design: key: 0 indicates no effect; 5 indicates complete kill; details: Plant No. 12 Helianthus tuberosus
Protocol: as §1

Imperata cyrindrica = assay: Foliage treatment (Example 8); design: key: 0 indicates no effect; 5 indicates complete kill; details: Plant No. 15 Imperata cyrindrica
Protocol: as §1

Oryzae sativa = assay: Foliage treatment (Example 8); design: key: 0 indicates no effect; 5 indicates complete kill; details: Plant No. 25 Oryzae sativa
Protocol: as §1

Pleioblastus chino = assay: Foliage treatment (Example 8); design: key: 0 indicates no effect; 5 indicates complete kill; details: Plant No. 11 Pleioblastus chino
Protocol: as §1

Pueraria lobata = assay: Foliage treatment (Example 8); design: key: 0 indicates no effect; 5 indicates complete kill; details: Plant No. 16 Pueraria lobata
Protocol: as §1

Raphanus sativus = assay: Foliage treatment (Example 8); design: key: 0 indicates no effect; 5 indicates complete kill; details: Plant No. 32 Raphanus sativus
Protocol: as §1

Rumex obtusifolius = assay: Foliage treatment (Example 8); design: key: 0 indicates no effect; 5 indicates complete kill; details: Plant No. 14 Rumex obtusifolius
Protocol: as §1

Solanum melongena = assay: Foliage treatment (Example 8); design: key: 0 indicates no effect; 5 indicates complete kill; details: Plant No. 31 Solanum melongena
Protocol: as §1

Triticum aestivum = assay: Foliage treatment (Example 8); design: key: 0 indicates no effect; 5 indicates complete kill; details: Plant No. 26 Triticum aestivum
Protocol: as §1

Castanea crenata = assay: Foliage treatment of naturally growing weeds and brush (Example 9); design: key: 0 indicates no effect; 5 indicates complete kill; details: Plant No. 8 Castanea crenata, One month
From the text: Aqueous solutions of Phosalacine (Na salt) at different concentrations and 0.1% of octylphenylpolyoxy ethanol as surfactant were applied to the area where various weeds and brush were naturally growing at a rate of 1500 liter per hectare. One month after the foliage treatment, damage to weeds and brush was visually assessed on a scale of from 0 to 5 where 0 indicates no effect and 5 indicates complete kill as hereinbefore defined.

Chamaecyparis obtusa = assay: Foliage treatment of woody plants (Example 10); design: key to damage to the plants, scale 0 to 5: 0 indicates no effect; 5 indicates complete kill; details: CH Chamaecyparis obtusa
From the text: (§2) Aqueous solutions containing Phosalacine (Na salt) at different concentrations and 0.1% of octylphenylpolyoxy ethanol as surfactant were applied at a rate of 1500 liter per hectare to woody plants of about 60-70 cm in height. 7 and 14 days after the foliage treatment, damage to the plants was visually assessed on a scale of from 0 to 5 (cf. Example 7).

Cryptomeria japonica = assay: Foliage treatment of woody plants (Example 10); design: key to damage to the plants, scale 0 to 5: 0 indicates no effect; 5 indicates complete kill; details: CP Cryptomeria japonica
From the text: as §2

Compound: CC(C)C[C@H](NC(=O)[C@H](C)NC(=O)[C@@H](N)CCP(C)(=O)O)C(=O)O [Phosalacine (Na salt)]
- damage to plants, scale 0 to 10 (Digitaria adscendens [1]; Concentration 0.01 ppm): 3 (30)
- damage to plants, scale 0 to 10 (Digitaria adscendens [1]; Concentration 0.03 ppm): 10 (100)
- damage to plants, scale 0 to 10 (Digitaria adscendens [1]; Concentration 0.1 ppm): 10 (100)
- damage to the plants, scale 0 to 5 (Cayratia japonica; 0.05%, 7 days): 3
- damage to the plants, scale 0 to 5 (Cayratia japonica; 0.05%, 14 days): 4
- damage to the plants, scale 0 to 5 (Cayratia japonica; 0.1%, 7 days): 5
- damage to the plants, scale 0 to 5 (Cayratia japonica; 0.1%, 14 days): 5
- damage to the plants, scale 0 to 5 (Daucus carota; 0.05%, 7 days): 3
- damage to the plants, scale 0 to 5 (Daucus carota; 0.05%, 14 days): 4
- damage to the plants, scale 0 to 5 (Daucus carota; 0.1%, 7 days): 5
- damage to the plants, scale 0 to 5 (Daucus carota; 0.1%, 14 days): 5
- damage to the plants, scale 0 to 5 (Digitaria adscendens [2]; 0.05%, 7 days): 3
- damage to the plants, scale 0 to 5 (Digitaria adscendens [2]; 0.05%, 14 days): 4
- damage to the plants, scale 0 to 5 (Digitaria adscendens [2]; 0.1%, 7 days): 5
- damage to the plants, scale 0 to 5 (Digitaria adscendens [2]; 0.1%, 14 days): 5
- damage to the plants, scale 0 to 5 (Helianthus tuberosus; 0.05%, 7 days): 3
- damage to the plants, scale 0 to 5 (Helianthus tuberosus; 0.05%, 14 days): 4
- damage to the plants, scale 0 to 5 (Helianthus tuberosus; 0.1%, 7 days): 5
- damage to the plants, scale 0 to 5 (Helianthus tuberosus; 0.1%, 14 days): 5
- damage to the plants, scale 0 to 5 (Imperata cyrindrica; 0.05%, 7 days): 3
- damage to the plants, scale 0 to 5 (Imperata cyrindrica; 0.05%, 14 days): 4
- damage to the plants, scale 0 to 5 (Imperata cyrindrica; 0.1%, 7 days): 5
- damage to the plants, scale 0 to 5 (Imperata cyrindrica; 0.1%, 14 days): 5
- damage to the plants, scale 0 to 5 (Oryzae sativa; 0.05%, 7 days): 3
- damage to the plants, scale 0 to 5 (Oryzae sativa; 0.05%, 14 days): 4
- damage to the plants, scale 0 to 5 (Oryzae sativa; 0.1%, 7 days): 5
- damage to the plants, scale 0 to 5 (Oryzae sativa; 0.1%, 14 days): 5
- damage to the plants, scale 0 to 5 (Pleioblastus chino; 0.05%, 7 days): 3
- damage to the plants, scale 0 to 5 (Pleioblastus chino; 0.05%, 14 days): 4
- damage to the plants, scale 0 to 5 (Pleioblastus chino; 0.1%, 7 days): 5
- damage to the plants, scale 0 to 5 (Pleioblastus chino; 0.1%, 14 days): 5
- damage to the plants, scale 0 to 5 (Pueraria lobata; 0.05%, 7 days): 3
- damage to the plants, scale 0 to 5 (Pueraria lobata; 0.05%, 14 days): 4
- damage to the plants, scale 0 to 5 (Pueraria lobata; 0.1%, 7 days): 5
- damage to the plants, scale 0 to 5 (Pueraria lobata; 0.1%, 14 days): 5
- damage to the plants, scale 0 to 5 (Raphanus sativus; 0.05%, 7 days): 3
- damage to the plants, scale 0 to 5 (Raphanus sativus; 0.05%, 14 days): 4
- damage to the plants, scale 0 to 5 (Raphanus sativus; 0.1%, 7 days): 5
- damage to the plants, scale 0 to 5 (Raphanus sativus; 0.1%, 14 days): 5
- damage to the plants, scale 0 to 5 (Rumex obtusifolius; 0.05%, 7 days): 3
- damage to the plants, scale 0 to 5 (Rumex obtusifolius; 0.05%, 14 days): 4
- damage to the plants, scale 0 to 5 (Rumex obtusifolius; 0.1%, 7 days): 5
- damage to the plants, scale 0 to 5 (Rumex obtusifolius; 0.1%, 14 days): 5
- damage to the plants, scale 0 to 5 (Solanum melongena; 0.05%, 7 days): 3
- damage to the plants, scale 0 to 5 (Solanum melongena; 0.05%, 14 days): 5
- damage to the plants, scale 0 to 5 (Solanum melongena; 0.1%, 7 days): 5
- damage to the plants, scale 0 to 5 (Solanum melongena; 0.1%, 14 days): 5
- damage to the plants, scale 0 to 5 (Triticum aestivum; 0.05%, 7 days): 3
- damage to the plants, scale 0 to 5 (Triticum aestivum; 0.05%, 14 days): 4
- damage to the plants, scale 0 to 5 (Triticum aestivum; 0.1%, 7 days): 5
- damage to the plants, scale 0 to 5 (Triticum aestivum; 0.1%, 14 days): 5
- damage to weeds and brush, scale 0 to 5 (Castanea crenata; 0.05%): 3
- damage to weeds and brush, scale 0 to 5 (Castanea crenata; 0.1%): 5
- damage to weeds and brush, scale 0 to 5 (Castanea crenata; 0.2%): 5
- damage to the plants, scale 0 to 5 (Chamaecyparis obtusa; 0.125%, 7 days): 0
- damage to the plants, scale 0 to 5 (Chamaecyparis obtusa; 0.125%, 14 days): 0
- damage to the plants, scale 0 to 5 (Chamaecyparis obtusa; 0.25%, 7 days): 0
- damage to the plants, scale 0 to 5 (Chamaecyparis obtusa; 0.25%, 14 days): 0
- damage to the plants, scale 0 to 5 (Chamaecyparis obtusa; 0.5%, 7 days): 0
- damage to the plants, scale 0 to 5 (Chamaecyparis obtusa; 0.5%, 14 days): 0
- damage to the plants, scale 0 to 5 (Cryptomeria japonica; 0.125%, 7 days): 0
- damage to the plants, scale 0 to 5 (Cryptomeria japonica; 0.125%, 14 days): 0
- damage to the plants, scale 0 to 5 (Cryptomeria japonica; 0.25%, 7 days): 0
- damage to the plants, scale 0 to 5 (Cryptomeria japonica; 0.25%, 14 days): 1
- damage to the plants, scale 0 to 5 (Cryptomeria japonica; 0.5%, 7 days): 0
- damage to the plants, scale 0 to 5 (Cryptomeria japonica; 0.5%, 14 days): 2
